# Source: patent publication US20230303613A1, “3′3′ CYCLIC DINUCLEOTIDES WITH AN ALKENYLENE” (Institute of Organic Chemistry and Biochemistry AS CR, v.v.i, priority 2020, published 2023)
# Like-named read-outs stand apart in the source and are kept apart here.
# Key:
# AQ STING (G230A-R293Q) = biological target: T1, AQ STING (G230A-R293Q) (Homo sapiens, UniProt Q86WV6, G230A/H232R/R293Q); test: Differential Scanning Fluorimetry with AQ STING; type: binding; details: thermal shift vs apoprotein; 150 µM CDN; truncated human AQ STING 0.1 mg/ml; read-out: DSF ΔTm AQ STING
# T1 construct: 8xHis (N, cleaved yes); SUMO (N, cleaved yes); made in house; host or cells: E. coli Rosetta-gami B (DE3)
# T1 sequence (Q86WV6 140-343 G230A/H232R/R293Q): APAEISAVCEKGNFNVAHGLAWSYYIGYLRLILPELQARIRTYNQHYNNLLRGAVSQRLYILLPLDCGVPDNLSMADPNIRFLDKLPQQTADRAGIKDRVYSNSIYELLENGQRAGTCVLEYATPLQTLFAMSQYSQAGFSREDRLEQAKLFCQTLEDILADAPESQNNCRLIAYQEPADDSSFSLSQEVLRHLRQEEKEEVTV
# Description: (§1) Purified PCR products were cleaved with restriction enzymes BamHI (cat. # R0136S, NEB, Ipswich, USA) and NotI (cat. # R0189S, NEB, Ipswich, USA) and cloned into the pSUMO vector linearized with the identical enzymes.
# (§2) Bacterial pellets were re-suspended in ice-cold lysis buffer containing 50 mmol.1^-1 TrisCl (cat. # T1503, Sigma Aldrich, Czech Republic) pH 8.0, 300 mmol.1^-1 NaCl, 3 mmol.1^-1 β-mercaptoethanol (cat. # M6250, Sigma Aldrich, Czech Republic), 10% glycerol (cat. # G5516, Sigma Aldrich, Czech Republic) and 20 mmol.1^-1 imidazole (cat. # I5513, Sigma Aldrich, Czech Republic) using Dounce homogenizer. DNase I (cat. # D5025, Sigma Aldrich, Czech Republic) and RNase A (cat. # R6513, Sigma Aldrich, Czech Republic) were added (final concentration 50 µg/ml) together with MgCl2 (final concentration 5 mmol.l^-1) to the homogenate and bacteria were lysed using French Press G-M™ High-Pressure Cell Press Homogenizer (1500 psi, 3 cycles). […] The resin was poured into a chromatography column, washed with 50 ml buffer A (50 mmol.1^-1 TrisCl (pH 8.0), 800 mmol.1^-1 NaCl, 3 mmol.1^-1 β-mercaptol; 10% glycerol; 20 mmol.1^-1 imidazole) and 8-His-SUMO tagged STING proteins were eluted with 15 ml buffer A containing 300 mmol.1^-1 imidazole. […] Proteins were concentrated with Amicon® Ultra-15 10 K device (cat. # UFC901008, Merck Millipore, Billerica, USA) and flash frozen in liquid N2.
# (§3) 20 µL solutions of the reaction mixtures were pipetted in triplicates into 96 well optical reaction plates and thermal denaturation of samples were performed on real time PCR cycler (LightCycler® 480 Instrument II - Roche, Basel, Switzerland). The first derivative of the thermal denaturation curves was performed to calculate denaturing temperatures of STING - CDN complexes and STING apoproteins. The thermal shift for each CDN was calculated by subtracting the average denaturing temperature of STING apoprotein from the average denaturing temperature of STING CDN complex.
# WT STING [1] = biological target: T2, WT STING (Homo sapiens, UniProt Q86WV6, H232R); test: 293T WT STING standard reporter assay; type: cell-based; details: 293T wtSTING-FL cells; 7 hours with compound, no digitonin; ISRE firefly luciferase reporter
# Target sequence in this assay (Q86WV6 whole entry H232R): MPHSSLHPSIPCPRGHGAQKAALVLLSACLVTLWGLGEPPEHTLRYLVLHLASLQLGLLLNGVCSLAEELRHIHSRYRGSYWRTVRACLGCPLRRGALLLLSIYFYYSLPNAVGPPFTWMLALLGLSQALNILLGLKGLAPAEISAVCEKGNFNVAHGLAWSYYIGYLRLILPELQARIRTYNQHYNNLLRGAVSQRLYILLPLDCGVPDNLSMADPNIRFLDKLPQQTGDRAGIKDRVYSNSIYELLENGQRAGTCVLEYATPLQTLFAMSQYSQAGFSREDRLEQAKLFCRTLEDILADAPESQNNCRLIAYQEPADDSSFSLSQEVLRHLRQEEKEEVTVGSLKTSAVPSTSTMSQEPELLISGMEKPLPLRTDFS
# WT STING [2] = biological target: T2, WT STING; test: Digitonin assay using 293T wtSTING-FL reporter cells; type: cell-based; details: 293T wtSTING-FL cells; 30 minutes in Digitonin buffer, then 5 hours; ISRE firefly luciferase reporter
# Description: Two complementary oligonucleotides of the sequence […] […] […] […] […] The oligonucleotides were mixed in equal molar amounts, hybridized, and cleaved by restriction endonucleases HindIII (cat. #. R0104S, NEB, Ipswich, USA) and BglII (cat. # R0144S, NEB, Ipswich, USA). Ultimately, they were ligated into plasmid pGL4.27 (cat. # E6651, Promega, Madison, USA) linearized with the same enzymes. As result the sequence with four ISRE sites was placed upstream of the minimum promoter of firefly luciferase reporter gene.
# After 5 minutes incubation at room temperature (RT), 250 µL of the mixture was added dropwise to the cells in one well. Cells were incubated 36 hours at 37° C. with 5% CO2, and then detached with 0.05% Trypsin and 0.22 g/L EDTA (both cat. # L0941, Biowest, Riverside, USA).
# Transfected cells were seeded onto poly-D-lysine coated six well plates at density 50,000 cells per 1 cm^2 in DMEM medium with high glucose containing 10% heat inactivated FBS, 30 µg/mL blasticidin (cat. # ant-bl-05, InvivoGen, San Diego, USA), 0.06 mg/ml Penicillin G and 0.1 mg/ml Streptomycin Sulfate (both cat. #. L0018, Biowest, Riverside, USA). The medium was replenished every 3 - 4 days until visible colonies of cells resistant to blasticidin were formed.
# Blasticidin resistant cells stably expressing WT STING were further transfected with […] plasmid following the same procedure as described above. […] Homogeneous culture of stably double transfected cells was prepared by limiting dilution of cells in 96 well plates and wells with cells were selected that originated from a single cell.
# The medium was removed next day and three fold serial dilutions of compounds in Digitonin buffer containing 50 mmol.l^-1 HEPES (cat. # H3375, Sigma Aldrich, Czech Republic) pH 7.0, 100 mmol.1^-1 KCl, 3 mmol.l^-1 MgCl2, 0.1 mmol.l^-1 DTT (cat. # D0632, Sigma Aldrich, Czech Republic), 85 mmol.1^-1 Sucrose (cat. # S7903, Sigma Aldrich, Czech Republic), 0.2% BSA (cat. # A2153, Sigma Aldrich, Czech Republic), 1 mmol.l^-1 ATP (cat. # A1852, Sigma Aldrich, Czech Republic), 0.1 mmol.1^-1 GTP (cat. # G8877, Sigma Aldrich, Czech Republic), and 10 µg/mL Digitonin A (cat. # D141, Sigma Aldrich, Czech Republic) were added to the cells. The buffer was removed after 30 minutes incubation at 37° C. with 5% CO2, the cells were washed once with 100 µl of cultivation medium, and 100 µl of medium was added to each well. The plates with cells were incubated for 5 hours at 37° C. with 5% CO2, 50µl of the medium was removed and 30 µl of ONE-Glo^Tm Luciferase Assay System reagent (cat. # E6120, Promega, Madison, USA) was added to each well. Luminescence was read on Synergy H1 (Biotek, Winooski, USA).
# Target sequence in this assay (Q86WV6 whole entry H232R): as above
# WT STING [3] = biological target: T2, WT STING; test: Differential Scanning Fluorimetry with WT STING; type: binding; design: 8xHis (N, cleaved yes); SUMO (N, cleaved yes); made in house; host or cells: E. coli Rosetta-gami B (DE3); details: thermal shift vs apoprotein; 150 µM CDN; truncated human WT STING 0.1 mg/ml; read-out: DSF ΔTm WT STING
# Description: as §1, §2, §3
# Target sequence in this assay (Q86WV6 140-343 H232R): as the sequence (Q86WV6 140-343 G230A/H232R/R293Q) above, with A91G, Q154R counted along it
# [4] = system: peripheral blood mononuclear cell (PBMC); test: Peripheral blood mononuclear cell assay; type: cell-based; details: PBMC, 1h with compound, washed, 15 hour incubation
# Protocol: Selected compounds were tested in an in vitro peripheral blood mononuclear cell (PBMC) assay. Freshly isolated PBMCs were seeded into U-shaped shaped 96-well plates at desity 500,000 cells per well in 50 µl of RPMI 1640 medium supplemented with 10% heat inactivated FBS. Serially dilluted tested compounds were added to wells in 50 µl of cultivation medium and cell were incubated with compounds for 1h at 37° C. with 5% CO2. Plates with cells were then spun 500 g for 5 minutes and medium was removed. Cells were washed twice with the cell culture medium by the use of centrifugation and gently resuspended in 100 µl medium without compounds. After 15 hour incubation at 37° C. with 5% CO2, the cell culture medium was collected and the levels of interferon-alpha (INF-α), interferon-gamma (INF-γ) and tumor necrosis factor-alpha (TNF-α) were determined with ProcartaPlex Assays (ThermoFisher, Waltham, USA) and MAGPIX System (Merck KGaA, Darmstadt, Germany).
compound,measurement,setting,value
Nc1ncnc2c1ncn2[C@@H]1O[C@@H]2/C=C/P(=O)(O)O[C@H]3[C@@H](F)[C@H](n4cnc5c(N)ncnc54)O[C@@H]3COP(=O)(O)O[C@H]2[C@H]1F [Compound 53],ΔTm at 150 µM,AQ STING (G230A-R293Q),11.6 °C
same,EC50,WT STING [1],10.1 µM
same,EC50,WT STING [2],0.03 µM
same,ΔTm at 150 µM,WT STING [3],6.9 °C
same,EC50,"[4]; IFN-α level in medium, read-out: PBMC EC50 IFN-α",120 µM
same,EC50,"[4]; IFN-γ level in medium, read-out: PBMC EC50 IFN-γ",36 µM
same,EC50,"[4]; TNF-α level in medium, read-out: PBMC EC50 TNF-α",54 µM
